In US10858326B2, “Oxazoline pseudodimers, pharmaceutical compositions and the use thereof” (PURDUE PHARMA L.P., priority 2016, dated 2020):

Target: hTAAR1 (Homo sapiens (Human), UniProt Q96RJ0)
Assay: in vitro cAMP assay (agonist activity assay), HitHunter cAMP XS+, cAMP Hunter cell lines
Assay type: cell-based
Details: cAMP Hunter cells, n in brackets; for EC50: 30 min at 37° C., read-out: hTAAR1 EC50 (mean ± SEM(n)); for Emax: maximal cAMP level, read-out: hTAAR1 Emax (mean ± SEM(n))
Protocol: EC50 (the effective concentration of an agonist that produces half of the maximal effect) and Emax (the maximal cAMP level generated by the biding of a ligand) can be used as a measure of potency. […] An in vitro cAMP assay (agonist activity assay) is described below.
cAMP Hunter cell lines were expanded from freezer stocks according to standard procedures. Cells were seeded in a total volume of 20 μL into white walled, 384-well microplates and incubated at 37° C. overnight prior to testing. cAMP modulation was determined using the HitHunter™ cAMP XS+ assay (DiscoverX, Fremont, Calif.).
On the day of test, media was aspirated from cells and replaced with 15 μL HBSS/10 mM HEPES. A plate centrifuge was used for the media exchange, and the plate centrifuge was immediately stopped once its speed hit 270 RPM.
5 μL of 4× compound (prepared in HBSS/10 mM HEPES/4% DMSO) was added to cells and incubated at 37° C. for 30 minutes. Final assay vehicle concentration was 1%.
5 μL of cAMP XS+ Antibody reagent was then added, followed by 20 μL of ED/CL lysis mix. The mixture was incubated at room temperature for 60 minutes. 20 μL of EA reagent was added, and the mixture was incubated at room temperature for 120 minutes.
Microplates were read following signal generation with a PerkinElmer Envision™ instrument (Waltham, Mass.) for chemiluminescent signal detection. Compound activity was analyzed using CBIS Data Analysis Suite (ChemInnovation, CA).

Chain of hTAAR1 (Q96RJ0 whole entry): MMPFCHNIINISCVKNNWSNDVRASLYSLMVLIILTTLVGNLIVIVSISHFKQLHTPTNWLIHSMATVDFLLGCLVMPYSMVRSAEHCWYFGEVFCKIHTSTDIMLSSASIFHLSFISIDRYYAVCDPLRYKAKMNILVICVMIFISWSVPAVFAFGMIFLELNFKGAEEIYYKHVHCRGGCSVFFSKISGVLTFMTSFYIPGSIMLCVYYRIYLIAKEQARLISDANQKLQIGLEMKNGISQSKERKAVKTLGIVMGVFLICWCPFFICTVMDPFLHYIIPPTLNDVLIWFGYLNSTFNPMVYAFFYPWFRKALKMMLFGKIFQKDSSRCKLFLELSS

SMILES | EC50 [µM] | Emax [%]
Clc1ccc([C@H]2COC(NC3=N[C@@H](c4ccc(Cl)c(Cl)c4)CO3)=N2)cc1Cl [Compound (8), (4S)-4-(3,4-dichlorophenyl)-N-[(4S)-4-(3,4-dichlorophenyl)-4,5-dihydro-1,3-oxazol-2-yl]-4,5-dihydro-1,3-oxazol-2-amine] | > 10 | 
CCN(C[C@H]1COC(NC2=N[C@@H](c3ccc(Cl)c(Cl)c3)CO2)=N1)c1ccccc1 [Compound (24), (4S)-4-(3,4-dichlorophenyl)-N-[(4S)-4-{[ethyl(phenyl)amino]methyl}-4,5-dihydro-1,3-oxazol-2-yl]-4,5-dihydro-1,3-oxazol-2-amine] | > 10 | 34.3 ± 8.7
CCN(C[C@H]1COC(NC2=N[C@@H](CN(CC)c3ccccc3)CO2)=N1)c1ccccc1 [Compound (25), (4S)-4-{[ethyl(phenyl)amino]methyl}-N-[(4S)-4-{[ethyl(phenyl)amino]methyl}-4,5-dihydro-1,3-oxazol-2-yl]-4,5-dihydro-1,3-oxazol-2-amine] | 4.07 ± 1.07 | 60.7 ± 9.4
c1ccc([C@H]2COC(NC3=N[C@@H](c4ccccc4)CO3)=N2)cc1 [Compound (26), (4S)-4-phenyl-N-[(4S)-4-phenyl-4,5-dihydro-1,3-oxazol-2-yl]-4,5-dihydro-1,3-oxazol-2-amine] | > 10 | 3.6 ± 0.9
Cc1c(F)cccc1[C@H]1COC(NC2=N[C@@H](c3cccc(F)c3C)CO2)=N1 [Compound (27), (4S)-4-(3-fluoro-2-methylphenyl)-N-[(4S)-4-(3-fluoro-2-methylphenyl)-4,5-dihydro-1,3-oxazol-2-yl]-4,5-dihydro-1,3-oxazol-2-amine] | 0.398 ± 0.0656 | 67.5 ± 3.4
